Measurements taken from publication PMC5090206, “Fluselenamyl: A Novel Benzoselenazole Derivative for PET Detection of Amyloid Plaques (Aβ) in Alzheimer’s Disease” (Scientific Reports, 2016).

Key:
Aβ1–42 fibrils = molecular target: T1, Aβ1–42 fibrils (Homo sapiens, UniProt P05067); assay: Saturation binding of [18F]-9 with Aβ1–42 fibrils
T1 construct: Commercially available amyloid peptide Aβ1-42; purchased
Method: For assessing the ability of [^18F]-9 to bind Aβ plaques; binding assays with either AD homogenates or preformed Aβ1–42 aggregates were performed in 30 mM Tris, pH 7.4 buffer supplemented with 0.1% BSA[39]. Nonspecific binding was determined in the presence of 5 (1 μM) as a competitor.
Scientific Reports Version of August 4, 2016
Binding assays were performed using previously described methods.11 Briefly, a fixed concentration (0.25 µM/well) of Aβ1–42 fibrils was incubated for 1 h at 37 °C with increasing concentrations of [18F]-9 (0.1 nM-15 nM) in 30 mM Tris-HCl pH 7.4, 0.1% BSA in a reaction volume of 150 µl. […] The exact hot:cold ([18F]-9 : 5) ratio was measured in each experiment by counting an aliquot of a sample (2 µl) of the radioligand preparation in a scintillation counter. Binding of [18F]-9 to human brain homogenates was assessed by incubating samples of insoluble fraction (1.25 µg insoluble protein/well) from AD subjects, with increasing concentrations of [18F]-9 (0.1nM-18 nM) for 1 h at 37 °C. Nonspecific binding was determined in parallel experiments in the presence of 5 (1 µM) as a competitor. […] Glass fiber filters containing the bound ligand were mixed with Optiphase Supermix scintillation cocktail (150µl; PerkinElmer) and counted immediately. […]
Bmax values were calculated in pmol/gram wet weight of brain tissue. […]

[1] = Biodistribution studies of [18F]-9 in normal mice; format: in vivo; settings: for Blood uptake / Bone uptake / Brain uptake / Heart uptake / Kidney uptake / Liver uptake / Lung uptake: tail-vein injection
Method: Uptake in brain and other critical organs was analyzed in terms of percent injected dose per gram of the tissue (%ID/g) SI Table 1. For in vivo imaging of Aβ plaques, the basic pharmacokinetic model in normal brains involves a high initial penetration of the agent, accompanied by facile clearance due to lack of a binding target. […] For comparison, brain uptake ratios of [^18F]-AV-45 (2 min/2 h) and [^18F]-Florbetaben (2 min/4 h) in normal mice are 4.07 (%ID/g (brain): 2 min: 7.33 ± 1.54; 2 h: 1.80 ± 0.07; 7.33/1.80; 4.07)[10] and 5.0 (%ID/g (brain): 2 min: 4.77; 4 h: 0.95; 4.77/0.95; 5.02)[46], respectively. […] For an agent to be able to serve as an Aβ-imaging agent, literature precedents indicate that brain uptake ratio (%ID/g; the earliest time–point; 2–5 min to that of the latest time point; typically for carbon-11; 30–60 min; and F-18, 2 h) of 3.5 or above could be considered as a benchmark for ability of a given agent to cross the blood-brain barrier. Additionally, the brain uptake of a given imaging agent is also a net function of several components, such as cerebral regional blood flow, BBB permeability, plasma radiotracer concentration, and free fractions of the radiotracer in plasma and in the brain. Furthermore, the lipophilicity of a given compound also reflects a critical physicochemical trait for neuroimaging radiotracers due to its direct relationship to membrane permeability, solubility in water, and entropic contribution to binding. Literature precedents indicate that lipophilic drugs readily cross the BBB, although other chemical characteristics, including the number of hydrogen bonds, molecular weight, polar surface area and molecular size are also known to be critical traits for passive transport. […] Conversely, radiotracers that are too lipophilic can also bind plasma proteins, undergo fast metabolism, while also contributing to high nonspecific binding, such as white matter. […] Additionally, the agent [^18F]-9 excreted from other critical organs over 2 h (SI, Table 1); a critical factor likely to result in favorable dosimetry; although slight defluorination as a function of time is also evident from bone accumulation; yet consistent with pharmacokinetic profiles of other FDA approved agents. For assessing directly the ability of radiotracer to traverse the BBB, [^18F]-9 (170 μCi) was injected into a 24 months old APP/PS1 transgenic mouse and its age-matched WT counterpart, and 30 min post tail-vein injection, the brains were removed, frozen, and sectioned for autoradiography (Fig. 7A–E). […] For ROI analysis of the PET signal in brain section autoradiograms of transgenic mouse (Fig. 7A) and its WT counterpart (Fig. 7D), we used measured count densities in cortex and amygdala target regions and compared them with that of hypothalamus as reference region with a low plaque density as determined by Aβ immunostaining (Fig. 7B). The target/reference ratio (mean ± SD) in the transgenic mouse was 1.88 ± 0.22 compared to 0.96 ± 0.12 in the WT control mouse (Fig. 7E). Since brain stem was also devoid of plaques, we also analyzed the above target regions using brain stem as a reference region, and observed target/reference value in the transgenic to be 0.89 ± 0.1 compared to 0.45 ± 0.07 in the WT mouse. […]
The count intensity (expressed as quantitative light unit (QL)/pixel2) was measured for each ROI after background subtraction, and target/reference ratios for Tg and WT brain were used to compare radiotracer uptake. The final figure was assembled in Adobe Photoshop CS3.
All animal procedures were approved by the Washington University Animal Studies Committee (Protocol # 20150147; Expiration 7/31/18). Thus, biodistribution studies were carried out in "accordance" with the approved guidelines. Pharmacokinetics of 18F-9 in brain and other critical tissues of normal male 12 week old BL6 (WT; 28-36 g) mice were determined as previously described 15. Briefly, 18F-9 (740 kBq) was […]

Lipophilicity (log P) = format: physicochemical; settings: octanol/water

T1 sequence (P05067 672-713 limits assumed): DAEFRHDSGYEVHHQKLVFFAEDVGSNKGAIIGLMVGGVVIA

CN(C)c1ncc(/C=C\c2nc3cc(OCC[18F])ccc3[se]2)cn1 [[^18F]-9]
Bmax (Aβ1–42 fibrils): 1.3 pmol/nmol | Kd (Aβ1–42 fibrils; 30 mM Tris pH 7.4, 0.1% BSA, one-site model): 1.6 nM | brain uptake clearance ratio superior to [18F]-AV-45 ([1]; healthy mice, 2 min/120 min): 1.3 fold | brain clearance ratio (%ID/g) 2 min/120 min ([1]; normal mice): 5.33 | Blood uptake ([1]; normal mice, 2 min): 4.79 ± 0.33 % ID/g | Bone uptake ([1]; normal mice, 2 min): 1.15 ± 0.15 % ID/g | Brain uptake ([1]; normal mice, 2 min): 8.86 ± 0.32 % ID/g | Heart uptake ([1]; normal mice, 2 min): 8.56± 0.78 % ID/g | Kidney uptake ([1]; normal mice, 2 min): 14.93± 0.85 % ID/g | Liver uptake ([1]; normal mice, 2 min): 35.44 ± 2.52 % ID/g | Lung uptake ([1]; normal mice, 2 min): 10.07± 0.74 % ID/g | Blood uptake ([1]; normal mice, 60 min): 2.27 ± 0.06 % ID/g | Bone uptake ([1]; normal mice, 60 min): 3.88 ± 1.48 % ID/g | Brain uptake ([1]; normal mice, 60 min): 1.80 ± 0.02 % ID/g | Heart uptake ([1]; normal mice, 60 min): 2.15 ± 0.02 % ID/g | Kidney uptake ([1]; normal mice, 60 min): 2.52 ± 0.06 % ID/g | Liver uptake ([1]; normal mice, 60 min): 8.64 ± 0.15 % ID/g | Lung uptake ([1]; normal mice, 60 min): 2.23 ± 0.11 % ID/g | Blood uptake ([1]; normal mice, 120 min): 2.16 ± 0.03 % ID/g | Bone uptake ([1]; normal mice, 120 min): 6.08 ± 0.85 % ID/g | Brain uptake ([1]; normal mice, 120 min): 1.66 ± 0.01 % ID/g | Heart uptake ([1]; normal mice, 120 min): 1.92 ± 0.05 % ID/g | Kidney uptake ([1]; normal mice, 120 min): 2.12 ± 0.09 % ID/g | Liver uptake ([1]; normal mice, 120 min): 8.13 ± 0.12 % ID/g | Lung uptake ([1]; normal mice, 120 min): 1.98 ± 0.05 % ID/g | logP (Lipophilicity (log P)): 1.28
